Data as given in ChEMBL document CHEMBL4043217, “A prodrug design for improved oral absorption and reduced hepatic interaction” (Bioorg Med Chem, 2017).
Activity calls are given as the source filed them. The calls are words filed in the database; no cut-off is given here.

Columns and labels:
Rattus norvegicus [1] = experiment: Estrogenic effect in ovariectomized adult female Wistar rat assessed as uterine weight level at 3 ug, po dosed from day 1 to 3 and measured on day 4 relative to untreated control; format: functional
Carbonic anhydrase 2 = Carbonic anhydrase 2 (Homo sapiens, UniProt P00918)
Description: Inhibition of human CA2 catalytic activity pre-incubated for 15 mins followed by 4-NPA substrate addition and measured every 12 to 15 secs for 5 mins by spectrophotometry

[2] = Prodrug conversion in human plasma assessed as esterase-mediated estradiol release by measuring saponification level after 10 mins by ELISA method; format: ADME; conditions: isolated protein
Rattus norvegicus [3] = experiment: Estrogenic effect in ovariectomized adult female Wistar rat assessed as uterine weight level at 10 ug, po dosed from day 1 to 3 and measured on day 4 relative to untreated control; format: functional
Estrogen receptor = biological target: T1, Estrogen receptor (Homo sapiens, UniProt P03372); experiment: Binding affinity to ER (unknown origin) expressed in UAS-bla GripTite 293 cells by Select screen competitive binding assay; format: cell-based
T1 sequence (P03372 whole entry): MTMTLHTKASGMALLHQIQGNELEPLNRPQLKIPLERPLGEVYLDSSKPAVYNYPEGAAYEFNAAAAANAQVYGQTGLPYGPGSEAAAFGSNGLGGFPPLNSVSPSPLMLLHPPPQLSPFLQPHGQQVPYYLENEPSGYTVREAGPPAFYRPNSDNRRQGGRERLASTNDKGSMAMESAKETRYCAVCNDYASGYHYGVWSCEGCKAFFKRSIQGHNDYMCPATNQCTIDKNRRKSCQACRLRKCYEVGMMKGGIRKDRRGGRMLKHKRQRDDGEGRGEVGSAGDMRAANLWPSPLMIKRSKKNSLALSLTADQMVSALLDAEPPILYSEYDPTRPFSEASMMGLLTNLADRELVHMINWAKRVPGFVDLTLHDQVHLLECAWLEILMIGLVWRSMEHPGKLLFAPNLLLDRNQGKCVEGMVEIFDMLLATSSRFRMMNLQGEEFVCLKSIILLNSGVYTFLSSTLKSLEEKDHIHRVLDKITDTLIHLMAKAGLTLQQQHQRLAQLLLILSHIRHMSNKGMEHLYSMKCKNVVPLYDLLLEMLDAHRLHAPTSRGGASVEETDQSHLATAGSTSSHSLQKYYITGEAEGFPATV

[4] = Oral bioavailability life in Sprague-Dawley rat plasma at 5 mg/kg; format: ADME, organism-based
[5] = Clearance in Sprague-Dawley rat plasma at 1 mg/kg, iv; format: ADME, organism-based
[6] = Half life in Sprague-Dawley rat blood at 5 mg/kg, po; format: ADME, organism-based
[7] = Clearance in Sprague-Dawley rat blood at 1 mg/kg, iv; format: ADME, organism-based
[8] = Half life in Sprague-Dawley rat plasma at 5 mg/kg, po; format: ADME, organism-based
[9] = Volume of distribution in Sprague-Dawley rat plasma at 1 mg/kg, iv; format: ADME, organism-based
[10] = Volume of distribution in Sprague-Dawley rat blood at 1 mg/kg, iv; format: ADME, organism-based
Rattus norvegicus [11] = experiment: Estrogenic effect in ovariectomized adult female Wistar rat assessed as uterine weight level at 1 ug, po dosed from day 1 to 3 and measured on day 4 relative to untreated control; format: functional
[12] = Oral bioavailability life in Sprague-Dawley rat blood at 5 mg/kg; format: ADME, organism-based
Rattus norvegicus [13] = experiment: Increase in testosterone level in orally dosed male rat serum relative to testosterone-propionate; format: functional, organism-based
Rattus norvegicus [14] = experiment: AUC (0 to 3 hrs) in rat at 3 mg, po; format: ADME; set-up: time < 3 hr, dose 3 mg, route oral; conditions: in vivo

SMILES: C[C@H](NC(=O)c1ccc(S(N)(=O)=O)cc1)C(=O)O[C@H]1CC[C@H]2[C@@H]3CCc4cc(O)ccc4[C@H]3CC[C@]12C
- Activity (Rattus norvegicus [1]): 163%
- IC50 (Carbonic anhydrase 2): 250 nM
- Drug metabolism [2]: 70%

SMILES: C[C@]12CC[C@@H]3c4ccc(O)cc4CC[C@H]3[C@@H]1CC[C@@H]2OC(=O)[C@@H]1CCCN1C(=O)c1coc(S(N)(=O)=O)c1
- Activity (Rattus norvegicus [3]): 313%
- IC50 (Carbonic anhydrase 2): 7 nM

SMILES: C[C@]12CC[C@@H]3c4ccc(O)cc4CC[C@H]3[C@@H]1CC[C@@H]2OC(=O)[C@@H]1CCCN1C(=O)Cc1ccc(S(N)(=O)=O)cc1
- Activity (Rattus norvegicus [3]): 267%
- IC50 (Carbonic anhydrase 2): 500 nM

SMILES: C[C@]12CC[C@@H]3c4ccc(O)cc4CC[C@H]3[C@@H]1CC[C@@H]2OC(=O)[C@@H]1CCCN1C(=O)c1ccc(S(N)(=O)=O)cc1
- EC50 (Estrogen receptor): 432 nM
- bioavailability [4]: 102%
- clearance [5]: 62.8 mL/min/kg
- half-life [6]: 4.9 h
- clearance [7]: 3.86 mL/min/kg
- half-life [8]: 4.58 h
- Vd [9]: 5.68 L/kg
- Vd [10]: 0.24 L/kg
- Activity (Rattus norvegicus [11]): 244%
- bioavailability [12]: 122%

SMILES: C[C@]12CC[C@@H]3c4ccc(O)cc4CC[C@H]3[C@@H]1CC[C@@H]2OC(=O)[C@@H]1CCCN1C(=O)c1cccc(-c2ccc(S(N)(=O)=O)cc2)c1
- Activity (Rattus norvegicus [3]): 153%
- IC50 (Carbonic anhydrase 2): 120 nM

SMILES: C[C@@H](C(=O)O[C@H]1CC[C@H]2[C@@H]3CCc4cc(O)ccc4[C@H]3CC[C@]12C)N(C)C(=O)c1ccc(S(N)(=O)=O)cc1
- Activity (Rattus norvegicus [3]): 289%
- Activity (Rattus norvegicus [11]): 145%
- IC50 (Carbonic anhydrase 2): 325 nM
- Drug metabolism [2]: 84%

SMILES: C[C@]12CC[C@@H]3c4ccc(O)cc4CC[C@H]3[C@@H]1CC[C@@H]2OC(=O)[C@@H]1CCCN1C(=O)c1ccc(S(N)(=O)=O)nc1
- Activity (Rattus norvegicus [3]): 259%
- IC50 (Carbonic anhydrase 2): 250 nM

SMILES: CC(C)(NC(=O)c1ccc(S(N)(=O)=O)cc1)C(=O)O[C@H]1CC[C@H]2[C@@H]3CCc4cc(O)ccc4[C@H]3CC[C@]12C
- Activity (Rattus norvegicus [3]): 97%
- Activity (Rattus norvegicus [11]): 107%
- IC50 (Carbonic anhydrase 2): 232 nM
- Drug metabolism [2]: 97%

SMILES: C[C@]12CC[C@@H]3c4ccc(O)cc4CC[C@H]3[C@@H]1CC[C@@H]2OC(=O)CNC(=O)c1ccc(S(N)(=O)=O)cc1
- IC50 (Carbonic anhydrase 2): 65 nM
- Drug metabolism [2]: 87%

SMILES: C[C@]12CC[C@@H]3c4ccc(O)cc4CC[C@H]3[C@@H]1CC[C@@H]2OC(=O)[C@@H]1CCCN1C(=O)c1ccc(S(N)(=O)=O)cn1
- Activity (Rattus norvegicus [3]): 268%
- IC50 (Carbonic anhydrase 2): 5000 nM

SMILES: C[C@]12CC[C@@H]3c4ccc(O)cc4CC[C@H]3[C@@H]1CC[C@@H]2OC(=O)[C@@H]1CCCN1c1ccc(S(N)(=O)=O)cc1
- Activity (Rattus norvegicus [3]): 92%
- IC50 (Carbonic anhydrase 2): 198 nM

SMILES: C[C@]12CC[C@@H]3c4ccc(O)cc4CC[C@H]3[C@@H]1CC[C@@H]2OC(=O)[C@H](Cc1ccccc1)NC(=O)c1ccc(S(N)(=O)=O)cc1
- Activity (Rattus norvegicus [3]): 117%
- Activity (Rattus norvegicus [11]): 95%
- IC50 (Carbonic anhydrase 2): 100 nM
- Drug metabolism [2]: 75%

SMILES: Cc1cc(C(=O)N2CCC[C@H]2C(=O)O[C@H]2CC[C@H]3[C@@H]4CCc5cc(O)ccc5[C@H]4CC[C@]23C)ccc1S(N)(=O)=O
- Activity (Rattus norvegicus [3]): 258%
- IC50 (Carbonic anhydrase 2): 210 nM

SMILES: CC(C)[C@H](NC(=O)c1ccc(S(N)(=O)=O)cc1)C(=O)O[C@H]1CC[C@H]2[C@@H]3CCc4cc(O)ccc4[C@H]3CC[C@]12C
- Activity (Rattus norvegicus [3]): 267%
- Activity (Rattus norvegicus [11]): 105%
- IC50 (Carbonic anhydrase 2): 202 nM
- Drug metabolism [2]: 89%

SMILES: C[C@]12CC[C@@H]3c4ccc(O)cc4CC[C@H]3[C@@H]1CC[C@@H]2OC(=O)[C@@H]1CCCN1C(=O)c1ccc(S(N)(=O)=O)o1
- Activity (Rattus norvegicus [3]): 318%
- IC50 (Carbonic anhydrase 2): 250 nM

SMILES: C[C@]12CC[C@@H]3c4ccc(O)cc4CC[C@H]3[C@@H]1CC[C@@H]2OC(=O)[C@@H]1CCCN1Cc1ccc(S(N)(=O)=O)cc1
- Activity (Rattus norvegicus [3]): 272%
- IC50 (Carbonic anhydrase 2): 129 nM

SMILES: C[C@]12CC[C@@H]3c4ccc(O)cc4CC[C@H]3[C@@H]1CC[C@@H]2OC(=O)[C@@H]1CCCN1S(N)(=O)=O
- Activity (Rattus norvegicus [3]): 268%
- IC50 (Carbonic anhydrase 2): 10000 nM

SMILES: C[C@]12CC[C@@H]3c4ccc(O)cc4CC[C@H]3[C@@H]1CC[C@@H]2OC(=O)[C@@H]1CCCN1C(=O)c1cccc(-c2cccc(S(N)(=O)=O)c2)c1
- Activity (Rattus norvegicus [3]): 216%
- IC50 (Carbonic anhydrase 2): 10000 nM

SMILES: C[C@]12CC[C@H]3[C@@H](CCC4=CC(=O)CC[C@@]43C)[C@@H]1CC[C@@H]2OC(=O)[C@@H]1CCCN1C(=O)c1ccc(S(N)(=O)=O)cn1
- Activity (Rattus norvegicus [13]): Active
- AUC (Rattus norvegicus [14]): 330 ng/mL

SMILES: C[C@]12CC[C@@H]3c4ccc(O)cc4CC[C@H]3[C@@H]1CC[C@@H]2OC(=O)[C@@H]1CCCN1C(=O)c1ccc(-c2ccc(S(N)(=O)=O)cc2)cc1
- Activity (Rattus norvegicus [3]): 309%
- IC50 (Carbonic anhydrase 2): 290 nM

SMILES: C[C@]12CC[C@@H]3c4ccc(O)cc4CC[C@H]3[C@@H]1CC[C@@H]2OC(=O)[C@@H]1CCCN1C(=O)c1cccc(S(N)(=O)=O)c1
- IC50 (Carbonic anhydrase 2): 300 nM
